In this experiment the target is T1, Human Polymorphonuclear Leukocyte Elastase (Homo sapiens, UniProt P08246).
T1 sequence (P08246 30-247 limits assumed): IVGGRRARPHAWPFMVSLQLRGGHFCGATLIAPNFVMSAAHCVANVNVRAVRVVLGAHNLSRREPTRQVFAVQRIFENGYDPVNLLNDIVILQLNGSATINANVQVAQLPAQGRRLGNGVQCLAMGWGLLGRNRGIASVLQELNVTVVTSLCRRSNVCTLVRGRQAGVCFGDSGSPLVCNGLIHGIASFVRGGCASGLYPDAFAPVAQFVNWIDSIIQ
Put plainly: biochemical. As for the experimental part:
Protocol--Enzyme Assays for the Inhibition of Human Polymorphonuclear Leukocyte Elastase Via Hydrolysis of N-t-Boc-alanyl-alanyl-prolylalanine-p-nitroanilide Reagents:
0.05M TES (N-tris[hydroxymethyl]methyl-2-amino-ethanesulfonic acid) Buffer, pH 7.5.
0.2 mMN-t-Boc-alanyl -alanyl -prolyl-alanine-p-nitroanilide (Boc-AAPAN).
To prepare substrate, the solid (m.w. 550) was first dissolved in 10.0 ml DMSO. Buffer at pH 7.5 was then added to a final volume of 100 ml.
Crude extract of human polymorphonuclear leukocytes (PMN) containing elastase activity.
Inhibitors (cephalosporin sulfone esters) to be tested dissolved in DMSO just before use.
To 1.0 ml of 0.2 mM Boc-AAPAN in a cuvette, 0.01-0.1 ml of DMSO with or without inhibitor was added. After mixing, a measurement was taken at 410 mμ to detect any spontaneous hydrolysis due to presence of test compound. 0.05 Milliliters of PMN extract was then added and the ΔOD/min at 410 mμ was measured and recorded. Beckman model 35 spectrophotometer was used.
The elastase activity in the crude PMN extract may vary from one preparation to another. A control of each new batch is run, and the volume added in the assay procedure is adjusted according to activity.

The mark [1] stands for this setting: Table IIa, 50% inhibition of the enzyme activity 2 minutes after zero time, crude PMN extract, pH 7.5, 0.2 mM Boc-AAPAN, read-out: ED50 (the source's name) (converted).
Setting [2] is: Table II, 50% inhibition of the enzyme activity 2 minutes after zero time, crude PMN extract, pH 7.5, 0.2 mM Boc-AAPAN, read-out: ED50 (the source's name) (converted).
The mark [3] stands for this setting: Table II, 50% inhibition of the enzyme activity 2 minutes after zero time, crude PMN extract, pH 7.5, 0.2 mM Boc-AAPAN.

≈ marks a conversion by molar mass, not a printed value. Like-named read-outs stand apart in the source and are kept apart here.

`CC(=O)OCC1=C(C(=O)OC(C)(C)C)N2C(=O)C(Cl)(Cl)C2S(=O)(=O)C1` (stereo not drawn): the IC50 under setting [1] is 241 nM. Take `CC(=O)OCC1=C(C(=O)OC(C)(C)C)N2C(=O)C(F)(F)C2S(=O)(=O)C1` (stereo not drawn): the IC50 under setting [1] is 131 nM. `COC1C(=O)N2C(C(=O)OC(C)(C)C)=C(COC(=O)c3ccccc3C(=O)O)CS(=O)(=O)C12` (stereo not drawn): the IC50 under setting [2] is 1250 nM.

Regarding `COC1C(=O)N2C(C(=O)OCC=C(C)C)=C(COC(C)=O)CS(=O)(=O)C12` (stereo not drawn), the IC50 under setting [2] was 2580 nM. Turning to `COC1C(=O)N2C(C(=O)OC(C)(C)C)=C(COC(C)=O)C(CS(=O)(=O)c3ccccc3)S(=O)(=O)C12` (stereo not drawn), under setting [2], the IC50 is 37.8 nM. The same measure, in the same setting: with `COC(=O)c1cccc(COC(=O)C2=C(C)CS(=O)(=O)C3C(OC)C(=O)N23)c1` (stereo not drawn) the figure was 733 nM. With `CO[C@H]1C(=O)N2C(C(=O)OC(C)(C)C)=C(CS(=O)(=O)c3ccccc3)CS(=O)(=O)C12` (single isomer, unassigned) [R1=OCH3, M=CH2SO2.phi., B=OtBu, Q=H, t-Butyl 3-phenylsulfonylmethyl-7α-methoxy-8-oxo-5-thia-1-azabicyclo[4.2.0]oct-2-ene-2-carboxylate-5,5-dioxide], the IC50 was 437 nM. The same measure, in the same setting: with `CO[C@H]1C(=O)N2C(C(=O)OC(C)(C)C)=C(C[S+]([O-])c3ccccc3)CS(=O)(=O)C12` (single isomer, unassigned) [R1=OCH3, M=CH2SO.phi., B=OtBu, Q=H, t-Butyl 3-phenylsulfinylmethyl-7α-methoxy-8-oxo-5-thia-1-azabicyclo[4.2.0]oct-2-ene-2-carboxylate-5,5-dioxide] the figure was 181 nM.

`CCC1C(=O)N2C(C(=O)OC(C)(C)C)=C(COC(=O)CCC(=O)O)CS(=O)(=O)C12` (stereo not drawn) [R1=C2H5, M=CH2OCOCH2CH2COOH, B=OtBu, Q=H]: under setting [2], the IC50 was 1850 nM. The same measure, in the same setting: with `CCC1C(=O)N2C(C(=O)OCc3ccccc3)=C(COC(C)=O)CS(=O)(=O)C12` (stereo not drawn) [R1=C2H5, M=CH2OCOCH3, B=OCH2.phi., Q=H] the figure was 982 nM. Regarding `CCC1C(=O)N2C(C(=O)OC(C)(C)C)=C(COC(=O)NC(C)C(=O)O)CS(=O)(=O)C12` (stereo not drawn) [R1=C2H5, M=drawing 31, B=OtBu, Q=H], under setting [2], the IC50 is 2240 nM.

Consider `CCC1C(=O)N2C(C(=O)OC(C)(C)C)=C(COC(=O)C(N)c3ccccc3)CS(=O)(=O)C12` (stereo not drawn) [R1=C2H5, M=drawing 32, B=OtBu, Q=H], for which the IC50 under setting [2] was 861 nM. `CC(=O)OCC1=C(C(=O)OC(C)(C)C)N2C(=O)[C@H](Cl)[C@H]2S(=O)(=O)C1` [R1=Cl, M=CH2OCOCH3, B=OtBu, Q=H, t-Butyl 3-acetyloxymethyl-7α-chloro-8-oxo-5-thia-1-azabicyclo[4.2.0]oct-2-ene-2-carboxylate-5.5-dioxide] gave an IC50 of 52.7 nM. Same read-out and setting: with `CC(=O)OCC1=C(C(=O)OC(C)(C)C)N2C(=O)[C@H](F)[C@H]2S(=O)(=O)C1` [R1=F, M=CH2OCOCH3, B=OtBu, Q=H, t-Butyl 3-acetyloxymethyl-7α-fluoro-8-oxo-5-thia-1-azabicyclo[4.2.0]oct-2-ene-2-carboxylate-5,5-dioxide] the figure was 82.6 nM. Molecule `CC(=O)OCC1=C(C(=O)OC(C)(C)C)N2C(=O)C(Oc3ccccc3)C2S(=O)(=O)C1` (stereo not drawn) [R1=OC6H5, M=CH2OCOCH3, B=OtBu, Q=H] gave an IC50 of 1830 nM. As to `CO[C@H]1C(=O)N2C(C(=O)OC(C)(C)C)=C(CCl)CS(=O)(=O)C12` (stereo partly drawn) [R1=OCH3, M=CH2Cl, B=OtBu, Q=H, t-Butyl 3-chloromethyl-7α-methoxy-8-oxo-5-thia-1-azabicyclo[4.2.0]oct-2-ene-2-carboxylate-5,5-dioxide], the ED50 under setting [3] was determined as 0.15 µg/mL (≈ 0.426 µM). For the molecule `COCC1=C(C(=O)OC(C)(C)C)N2C(=O)[C@H](OC)C2S(=O)(=O)C1` (stereo partly drawn) [R1=OCH3, M=CH2OCH3, B=OtBu, Q=H], the IC50 is 864 nM. Consider `CO[C@H]1C(=O)N2C(C(=O)OC(C)(C)C)=C(COC(=O)CCC(=O)O)CS(=O)(=O)C12` (stereo partly drawn) [R1=OCH3, M=CH2OCOCH2CH2COOH, B=OtBu, Q=H, t-Butyl 3-(3-[hydroxycarbonyl]Propanoyloxymethyl)-7α-methoxy-8-oxo-5-thia-1-azabicyclo[4.2.0]oct-2-ene-2-carboxylate-5,5-dioxide], for which the IC50 under setting [2] is 231 nM. Turning to `CNCC(=O)OCC1=C(C(=O)OC(C)(C)C)N2C(=O)C(OC)C2S(=O)(=O)C1` (stereo not drawn) [R1=OCH3, M=CH2OCOCH2NHCH3, B=OtBu, Q=H], under setting [2], the IC50 is 742 nM.

For `COC1C(=O)N2C(C(=O)N(C)C)=C(COC(C)=O)CS(=O)(=O)C12` (stereo not drawn) [R1=OCH3, M=CH2OCOCH3, B=N(CH3)2, Q=H], the IC50 under setting [2] is 1730 nM.

Regarding `CO[C@H]1C(=O)N2C(C(=O)NCC(=O)OC(C)(C)C)=C(COC(C)=O)CS(=O)(=O)[C@H]12` [R1=OCH3, M=CH2OCOCH3, B=NHCH2COOtBu, Q=H, N-(t-Butoxycarbonyl)methyl 3-acetyloxymethyl-7α-methoxy-8-oxo-5-thia-1-azabicyclo[4.2.0]oct-2-ene-2-carboxamide-5,5 dioxide], the IC50 under setting [2] was 2080 nM. In turn, `CO[C@H]1C(=O)N2C(C(=O)OCc3ccccc3)=C(COC(C)=O)CS(=O)(=O)[C@H]12` [R1=OCH3, M=CH2OCOCH3, B=OCH2.phi., Q=H, Benzyl 3-acetyloxymethyl-7α-methoxy-8-oxo-5-thia-1-azabicyclo[4.2.0]oct-2-ene-2-carboxylate-5,5-dioxide] showed an IC50 of 73.3 nM.

`COC1C(=O)N2C(C(=O)OCC(=O)C(C)(C)C)=C(COC(C)=O)CS(=O)(=O)C12` (stereo not drawn) [R1=OCH3, M=CH2OCOCH3, B=OCH2COtBu, Q=H]: the IC50 under setting [2] was 47.9 nM.

`COC(=O)C1=C(COC(C)=O)CS(=O)(=O)C2C(OC)C(=O)N12` (stereo not drawn) [R1=OCH3, M=CH2OCOCH3, B=OCH3, Q=H]: the IC50 is 240 nM.

For the molecule `C=C1C(COC(C)=O)=C(C(=O)OC(C)(C)C)N2C(=O)[C@H](OC)[C@H]2S1(=O)=O` [R1=OCH3, M=CH2OCOCH3, B=OtBu, Q=CH2, t-Butyl 3-acetyloxymethyl-7α-methoxy-4-methylene-8-oxo-5-thia-1-azabicyclo [4.2.0]oct-2-ene-2-carboxylate-5,5-dioxide], the IC50 under setting [2] was 77.4 nM.

Take `COC1C(=O)N2C(C(=O)OC(C)(C)C)=C(COC(C)=O)C(Cc3ccccc3)S(=O)(=O)C12` (stereo not drawn) [R1=OCH3, M=CH2OCOCH3, B=OtBu, Q=CH2.phi.]: the IC50 under setting [2] is 32200 nM. `CO[C@H]1C(=O)N2C(C(=O)OC(C)(C)C)=C(COC(C)=O)C(C)S(=O)(=O)[C@H]12` (stereo partly drawn) [R1=OCH3, M=CH2OCOCH3, B=OtBu, Q=CH3]: the IC50 under setting [2] was 77 nM. On to `CO[C@H]1C(=O)N2C(C(=O)OC(C)(C)C)=C(COC(C)=O)CS(=O)(=O)[C@H]12` [R1=OCH3, M=CH2OCOCH3, B=OtBu, Q=H, t-Butyl-3-acetyloxymethyl-7α-methoxy-8-oxo-5-thia-1-azabicyclo[4.2.0]oct-2-ene-2-carboxylate-5,5-dioxide], for which, under setting [2], the IC50 was 1330 nM.

For the molecule `COC1C(=O)N2C(C(=O)N3CCC[C@H]3C(=O)O)=C(COC(C)=O)CS(=O)(=O)C12` (stereo partly drawn) [R1=OCH3, M=CH2OCOCH3, B=drawing 33, Q=H], the IC50 under setting [2] was 12000 nM. The same measure, in the same setting: for `CO[C@H]1C(=O)N2C(C(=O)OC(C)(C)C)=C(COC(=O)NCC(=O)O)CS(=O)(=O)C12` (stereo partly drawn) [R1=OCH3, M=CH2OCONHCH2COOH, B=OtBu, Q=H, t-Butyl 3-hydroxycarbonylmethylaminocarbonyloxymethyl-7α-methoxy-8-oxo-5-thia-1-azabicyclo[4.2.0]oct-2-ene-2-carboxylate-5,5-dioxide] the value was 92.1 nM. Still for that read-out and setting: for `CCOC(=O)OCC1=C(C(=O)OC(C)(C)C)N2C(=O)C(OC)C2S(=O)(=O)C1` (stereo not drawn) [R1=OCH3, M=CH2OCOOC2H5, B=OtBu, Q=H] the value was 740 nM; for `COC1C(=O)N2C(C(=O)OC(C)(C)C)=C(CO)CS(=O)(=O)C12` (stereo not drawn) [R1=OCH3, M=CH2OH, B=OtBu, Q=H], 2400 nM. Take `CO[C@H]1C(=O)N2C(C(=O)OC(C)(C)C)=C(CSc3ccccc3)CS(=O)(=O)C12` (stereo partly drawn) [R1=OCH3, M=CH2S.phi., B=OtBu, Q=H, t-Butyl 3-phenylthiomethyl-7α-methoxy-8-oxo-5-thia-1-azabicyclo[4.2.0]oct-2-ene-2-carboxylate-5,5-dioxide]: under setting [3], the ED50 stood at 0.4 µg/mL (≈ 0.94 µM). Regarding `COC1C(=O)N2C(C(=O)OC(C)(C)C)=C(CS(C)(=O)=O)CS(=O)(=O)C12` (stereo not drawn) [R1=OCH3, M=CH2SO2CH3, B=OtBu, Q=H], the IC50 under setting [2] is 253 nM. The same measure, in the same setting: with `CCOC(=O)COC(=O)C1=C(C)CS(=O)(=O)C2C(OC)C(=O)N12` (stereo not drawn) [R1=OCH3, M=CH3, B=OCH2COOC2H5, Q=H] the figure was 1440 nM. In turn, `CO[C@H]1C(=O)N2C(C(=O)OC(C)(C)C)=C(C)CS(=O)(=O)C12` (stereo partly drawn) [R1=OCH3, M=CH3, B=OtBu, Q=H, t-Butyl 3-methyl-7α-methoxy-8-oxo-5-thia-1-azabicyclo [4.2.0]oct-2-ene-2-carboxylate-5,5-dioxide] came in with an ED50 under setting [3] of 1.0 µg/mL (≈ 3.15 µM).

These data come from patent US5364848A, “Substituted cephalosporin sulfones as anti-inflammatory and antidegenerative agents” (Merck & Co., Inc., priority 1992, dated 1994).
